US9511016B2, “Topical composition for treating pain” (EpicentRx, Inc., priority 2007, dated 2016)
Values joined by “and” are separate entries in the source; they are usually repeats but may differ in a detail not shown here. Equal entries are not always repeated.

What was measured:
[1] = system: Human Patient with Pain; experiment: Topical treatment of human patients with pain: pain level (x/10), mobility, duration; assay type: in vivo; conditions: for Mobility / stiffness after application: patient and treated site of the example or table row cited; for Observation: mobility: Table 5 patient 10, neck pain 5/10
[2] = system: Human Patient; experiment: Systemic effects in human patients after application: breathing, peak expiratory flow, appetite, alertness; assay type: in vivo; conditions: patient of the example or table row cited
Text: Pluronic gel 20% with lecithin soya/isopropyl myristate was applied to stomach and abdominal wall.

[3] = Table 7: sacroiliac strain, bilateral sacroilitis
[4] = Ex.27, clonidine then nitropaste
[5] = Table 7: compression fracture of vertebra
[6] = Table 7: neck pain and stiffness
[7] = Table 7: patellofemoral syndrome
[8] = Table 7: back, leg, joint, hip, toe, knee pain
[9] = Table 7: sacroiliac strain, bilateral sacroilitis, listed as Albuterol inhaler

Molecule: CC(C)NCC(O)COc1ccc(CC(N)=O)cc1 (centres unmarked) [Atenolol]
- Pain level ([1]; Ex.10 thoracalgia, left side, initial 5/10, in series): pain completely disappeared
- Pain level ([1]; Ex.10 thoracalgia, right side, initial 5/10, in series): 2/10
- Pain level ([1]; Ex.4 hammer toes, halux valgus and rigiditus, initial 7/10, in series): no effect
- Pain level ([1]; Ex.5 hip, trochanteric bursitis, initial 8/10, in series): 6/10
- Pain level ([1]; Ex.5 knee osteoarthritis, initial 8/10): 5/10
- Pain level ([1]; Ex.8 hip, trochanteric bursitis, initial 8/10, in series): no change
- % Change in Pain level ([1]; Table 7: osteoarthritis): 37.5%
- EFFECT ON PAIN LEVEL/% change ([1]; Table 7: osteoarthritis): From 8/10 to 5/10
- % Change in Pain level [1, 3]: 0%
- EFFECT ON PAIN LEVEL/% change [1, 3]: No change
- % Change in Pain level ([1]; Table 7: trochanteric bursitis): 25%
- EFFECT ON PAIN LEVEL/% change ([1]; Table 7: trochanteric bursitis): From 8/10 to 6/10

Molecule: Clc1cccc(Cl)c1N=C1NCCN1 [Clonidine]
- Pain level ([1]; Ex.11 right arm neuroma with phantom limb, initial 4/10, in series): pain completely disappeared
- Pain level ([1]; Ex.17 left rotator cuff impingement and bursitis, initial printed 5110): Pain disappeared
- Pain level ([1]; Ex.20 ischial gluteal bursitis, initial 9/10, clonidine then nitropaste): 5/10
- Pain level ([1]; Ex.20 right knee osteoarthritis, from 9/10, clonidine then nitropaste): 8/10
- Pain level ([1]; Ex.20 right wrist carpal tunnel, initial 9/10, nitropaste then clonidine paste): 3/10
- Pain level ([1]; Ex.20 trochanteric bursitis, initial 9/10, clonidine then nitropaste): 5/10
- Pain level ([1]; Ex.21 bilateral sacroiliac strain, initial 9/10, in series): 5/10
- Pain level ([1]; Ex.22 bilateral rotator cuff tear, initial printed 8.5410): no effect
- Pain level ([1]; Ex.23 thoracalgia, initial 8/10): no effect
- Pain level ([1]; Ex.24 left patellofemoral syndrome, initial 7/10, in series): 3/10
- Pain level ([1]; Ex.25 left trochanteric bursitis, initial 7/10): disappeared
- Pain level ([1]; Ex.25 right thumb osteoarthritis, initial 2/10, in series): stayed the same
- Pain level ([1]; Ex.26 L3 vertebral compression fracture, initial 6/10, in series): 4/10
- Pain level ([1]; Ex.27 neck stiffness and pain, radiculopathy, initial about 6/10): pain disappeared
- Head rotation to left [1, 4]: 70 degrees
- Head rotation to right [1, 4]: 75 degrees
- Pain level ([1]; Ex.28 left knee, initial 6/10, nitrobid then clonidine): pain also disappeared
- Pain level ([1]; Ex.28 right knee osteoarthritis/patellofemoral syndrome, initial 6/10, clonidine then nitrobid): 3/10
- Pain level ([1]; Ex.30 diabetic lower extremity neuropathy, initial 7/10, in series): 5/10
- Pain Level, CD ([1]; Table 1 part II: after clonidine paste (first step), listed as CD): 3/10 and 7/10 and 6/10
- % Change in Pain level [1, 5]: 33%
- EFFECT ON PAIN LEVEL/% change [1, 5]: From 6/10 to 4/10, No
- % Change in Pain level, total over successive treatments (marked *) ([1]; Table 7: migraine and tension headache): *100%
- EFFECT ON PAIN LEVEL/% change ([1]; Table 7: migraine, tension headache, cluster headache, headache): 0/10
- % Change in Pain level [1, 6]: 100%
- EFFECT ON PAIN LEVEL/% change [1, 6]: From 6/10 to 0/10
- % Change in Pain level, total over successive treatments (marked *) ([1]; Table 7: osteoarthritis): *100%;
- EFFECT ON PAIN LEVEL/% change ([1]; Table 7: osteoarthritis): No change and From 6/10 to 3/10 and 6/10 to 0/10
- % Change in Pain level [1, 7]: 40%
- % Change in Pain level, total over successive treatments (marked *) [1, 7]: 57%
- EFFECT ON PAIN LEVEL/% change [1, 7]: From 5/10 to 3/10
- EFFECT ON PAIN LEVEL/% change ([1]; Table 7: rotator cuff tendinopathy, rotator cuff tear, shoulder pain, listed as Clonidine paste): From 3/10 to 0/10
- % Change in Pain level ([1]; Table 7: rotator cuff tendinopathy, tear, shoulder pain, listed as Clonidine paste): 100%
- EFFECT ON PAIN LEVEL/% change ([1]; Table 7: trochanteric bursitis): From 7/10 to 0/10
- Mobility / stiffness after application [1]: improved flexibility
- Mobility / stiffness after application ([1]; listed as Clonidine paste): improved mobility and range of motion
- Duration of pain relief ([1]; patient of the example cited): 6 h
- Persistence of pain relief at follow-up ([1]; patient of the example cited): A day later patient reported that their knee pain was still reduced
- Time to decrease of pain ([1]; patient of the example cited): 5 min
- Time to decrease of pain ([1]; patient of the example cited, listed as clonidine): ≤ 10 min

Molecule: OCC(O)CO [GP, Glycerin]
- Observation (pain) ([1]; Table 4, components marked +, complaint and initial level in the same row, plus anhydrous lanolin): Pain disappeared
- Observation (pain) ([1]; Table 5): 10 No effect on knee
- Observation (pain) ([1]; Table 5, listed as Glycerin pure): 1/10
- % Change in Pain level [1, 8]: 0%
- EFFECT ON PAIN LEVEL/% change [1, 8]: No Change, then from 8/10
- % Change in Pain level ([1]; Table 7: osteoarthritis): 16.7%
- % Change in Pain level ([1]; Table 7: tarsal tunnel, carpal tunnel syndrome, wrist pain): 0%

Molecule: CC(O)CO (centres unmarked) [Propylene glycol]
- Observation (pain) ([1]; Table 5): No effect

Molecule: CCCCCCCCCCCCOS(=O)(=O)[O-].[Na+] [SDS 20%, Sodium dodecyl sulfate]
- Systemic effects noted (alertness, appetite, breathing, congestion, sweating, secretions) ([2]; listed as SDS, sulfate): improvement in breathing

Molecule: CC(C)(C)NCC(O)c1ccc(O)c(CO)c1 (centres unmarked) [albuterol inhaler, albuterol]
- Pain level ([1]; Ex.34 V(a) left heel (no gel), initial 8/10, inhalers in series): 6/10
- Pain level ([1]; Ex.34 V(a) left heel, albuterol inhaler given again (from 5/10)): 3/10
- Pain level ([1]; Ex.34 V(a) right heel (PLO gel applied here), initial 8/10, then inhalers in series): 4/10
- Pain level ([1]; Ex.34 V(a) right heel, albuterol inhaler given again (from 3/10)): 2/10
- Pain level ([1]; Ex.34 V(c) lower back pain over coccyx, initial 8/10, in series): no change in their back pain
- Pain level ([1]; Ex.34 V(c) neck pain and stiffness, initial 5/10, in series): 2/10
- Pain level ([1]; Ex.34 V(e) sacroiliac strain, initial 8.5/10, in series): 4/10
- Pain level ([1]; Ex.34 V(f) midback pain, initial 7/10): without any change
- Pain level ([1]; Ex.34 V(h) possible lower lumbar compression fracture, initial 5/10, in series): 6/10
- EFFECT ON PAIN LEVEL/% change [1, 6]: 2/10
- % Change in Pain level, total over successive treatments (marked *) [1, 3]: 53% to
- % Change in Pain level [1, 9]: 20%
- EFFECT ON PAIN LEVEL/% change [1, 9]: From 5/10 to 4/10
- % Change in Pain level ([1]; Table 7: sacroiliac strain, bilateral sacroilitis, listed as albuterol): 0%

Molecule: COc1cc(CNC(=O)CCCC/C=C/C(C)C)ccc1O [capsaicin]
- Overall analgesic effect (general statement) ([1]; across patients): did not have much of an effect except in a few patients

Molecule: Triton x100
- Observation: mobility [1]: Slight increase in mobility

Molecule: Tween 20
- Observation: mobility [1]: Increased mobility

Molecule: Tween 80
- Observation: mobility [1]: More mobility
- Systemic effects noted (alertness, appetite, breathing, congestion, sweating, secretions) [2]: improvement in breathing
